The target of data set [1] is T1, chanoclavine synthase (EasC) from Claviceps fusiformis (EasCCf) (Claviceps fusiformis, UniProt A8C7R6).
T1 sequence (A8C7R6 1-479): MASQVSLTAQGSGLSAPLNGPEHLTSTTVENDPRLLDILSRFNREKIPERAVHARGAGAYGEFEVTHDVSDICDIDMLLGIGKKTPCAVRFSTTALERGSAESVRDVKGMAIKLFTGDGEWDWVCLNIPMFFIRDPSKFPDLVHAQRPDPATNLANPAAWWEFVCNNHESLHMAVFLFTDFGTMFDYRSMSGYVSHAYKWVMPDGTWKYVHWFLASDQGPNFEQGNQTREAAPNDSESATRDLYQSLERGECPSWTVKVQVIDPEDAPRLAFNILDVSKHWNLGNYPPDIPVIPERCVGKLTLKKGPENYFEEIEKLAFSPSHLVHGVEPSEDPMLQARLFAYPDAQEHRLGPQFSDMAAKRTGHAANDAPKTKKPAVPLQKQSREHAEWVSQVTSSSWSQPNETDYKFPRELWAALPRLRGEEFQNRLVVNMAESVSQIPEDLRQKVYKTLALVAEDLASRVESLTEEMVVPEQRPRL
Put plainly: PCC conversion assay by LC–MS. In kind it is biochemical.

The data set “cryo-EM structure” concerns the molecule itself. The data set can be described thus: cryo-EM structure.

As for `NO` [NH2OH, hydroxylamine], the IC50 in data set [1] came out at 720 µM.

B1: chanoclavine synthase (EasC) from Claviceps fusiformis (enzyme)
chain: MASQVSLTAQGSGLSAPLNGPEHLTSTTVENDPRLLDILSRFNREKIPERAVHARGAGAYGEFEVTHDVSDICDIDMLLGIGKKTPCAVRFSTTALERGSAESVRDVKGMAIKLFTGDGEWDWVCLNIPMFFIRDPSKFPDLVHAQRPDPATNLANPAAWWEFVCNNHESLHMAVFLFTDFGTMFDYRSMSGYVSHAYKWVMPDGTWKYVHWFLASDQGPNFEQGNQTREAAPNDSESATRDLYQSLERGECPSWTVKVQVIDPEDAPRLAFNILDVSKHWNLGNYPPDIPVIPERCVGKLTLKKGPENYFEEIEKLAFSPSHLVHGVEPSEDPMLQARLFAYPDAQEHRLGPQFSDMAAKRTGHAANDAPKTKKPAVPLQKQSREHAEWVSQVTSSSWSQPNETDYKFPRELWAALPRLRGEEFQNRLVVNMAESVSQIPEDLRQKVYKTLALVAEDLASRVESLTEEMVVPEQRPRL
For the molecule B1, the “stoichiometry N” value in the data set “cryo-EM structure” is 2.

The record behind these values is publication PMC12003167 (Nature, 2025).
